What was measured:
[1] = biological target: T1, PKG-1α (Homo sapiens, UniProt Q13976); assay: PKG activity in transfected HEK-293T cells; format: cell-based; set-up: an expression plasmid containing a full length WT-PKG-1α cDNA; made in house; host or cells: HEK-293T; details: HEK-293T expressing WT-PKG-1α; SIN-1 500 μM, 30 min
T1 sequence (Q13976 2-671): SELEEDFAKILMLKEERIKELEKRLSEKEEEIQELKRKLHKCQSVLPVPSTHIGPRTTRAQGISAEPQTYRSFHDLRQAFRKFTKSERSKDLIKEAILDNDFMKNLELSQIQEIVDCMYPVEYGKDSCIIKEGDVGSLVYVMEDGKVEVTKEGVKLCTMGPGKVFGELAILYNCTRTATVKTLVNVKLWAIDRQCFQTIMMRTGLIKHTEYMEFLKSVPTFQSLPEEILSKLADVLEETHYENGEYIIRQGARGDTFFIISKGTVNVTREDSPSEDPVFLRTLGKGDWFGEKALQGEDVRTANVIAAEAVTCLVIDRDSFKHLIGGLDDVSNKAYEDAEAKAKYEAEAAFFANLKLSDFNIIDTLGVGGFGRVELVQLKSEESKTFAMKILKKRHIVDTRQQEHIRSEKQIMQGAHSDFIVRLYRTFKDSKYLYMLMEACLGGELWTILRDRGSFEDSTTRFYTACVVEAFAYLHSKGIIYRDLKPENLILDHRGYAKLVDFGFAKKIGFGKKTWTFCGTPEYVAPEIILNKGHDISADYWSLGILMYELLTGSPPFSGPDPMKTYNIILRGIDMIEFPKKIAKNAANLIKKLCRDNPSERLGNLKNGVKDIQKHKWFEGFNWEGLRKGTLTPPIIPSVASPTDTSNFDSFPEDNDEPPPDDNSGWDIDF
Description: To determine the role of tyrosine 247 and tyrosine 425 in mediating the nitration dependent inhibition of PKG-1α kinase activity, Y247F- and Y425F-PKG-1α mutants were generated and expressed in HEK-293T cells. HEK-293T cells were transiently transfected with expression plasmids containing WT-, Y247F-, or Y425F-PKG-1α for 48 h. […] Protein extracts were immunoprecipitated using an antibody raised against PKG-1α and the level of nitrated PKG-1α determined by probing the membranes with an antiserum raised against 3-NT. The blots were then stripped and re-probed for PKG-1α to normalize for the efficiency of the immunoprecipitation.
Total PKG activity was determined using a non-radioactive immunoassay in cell lysates, according to the manufacturer's directions. […]
After incubation for 30 min at 30° C. to allow the phosphorylation of the bound substrate, an HRP conjugated anti-phosphothreonine specific antibody was added to convert a chromogenic substrate to a colorimetric substrate that was subsequently read spectrophotometrically at 450 nm. The change in absorbance reflected the relative activity of PKG in the sample. […] The kinetic constants were determined using nonlinear regression (curve fit) analysis (GraphPad Prism Software Inc.).

[2] = tested on: pulmonary artery smooth muscle cells (PASMC); assay: PASMC cell growth (cell count); format: cell-based, lamb; details: WT-PKG-1α transfected PASMC; SIN-1 500 μM, 48 h
Description: Pulmonary artery smooth muscle cells (PASMC) were grown on a 10 cm dish to 75% confluence, transfected with WT-PKG-1α or Y247F-PKG-1α cDNA using a Qiagen transfection kit, according to manufacturer's instructions, and incubated at 37° C. for 20 h. […] The cells were then trypsinized, seeded onto a 6-well plate at a density of 2.5×10^4 cells per well, and grown for an additional 4 h in serum-free DMEM growth medium containing 1% FBS and antibiotics. The cells were then treated with or without SIN-1 (500 μM) and allowed to grow at 37° C. in the incubator for an additional 48 h. The cellular proliferation was evaluated by counting the cells with a hemacytometer (Cascade Biologicals™, Portland, Oreg.) after the trypsinization of the PASMC monolayers.
Primary cultures of pulmonary artery smooth muscle cells (PASMC) from 4-week old lambs were isolated by the explant technique, as previously described (Wedgwood, S., et al., Circulation Research 89, 357-364 (2001)). Briefly, a segment of the main pulmonary artery from a 4-week old lamb was excised and placed in a sterile 10 cm dish containing DMEM supplemented with 1 gm/1 glucose. The segment was stripped of adventitia with a sterile forceps. The main pulmonary artery segment was then cut longitudinally to open the vessel, and the endothelial layer was removed by gentle rubbing with a cell scraper. […]

Q: How did the “cGMP dependent PKG activity” value [1] turn out when “3-morpholinosydnonimine N-ethylcarbamide [SIN-1]” was run?
A: attenuated

Q: And the proliferation [2]?
A: stimulated

Source: patent publication US9551711B2, “Compositions and methods for detecting nitration of PKG-1α and methods of use thereof” (Augusta University Research Institute, Inc., priority 2013, dated 2017)
